This passage reports inhibition results from ChEMBL document CHEMBL3046858, “Synthesis and fungicidal activities of novel indene-substituted oxime ether strobilurins” (2008).

Holding throughout (assay type): functional
What all share (parameters): dose or concentration left out as unconfirmed

One test deals with Colletotrichum lagenaria. The test is described as follows: Fungicidal activity against Colletotrichum lagenaria infected in compound pre-treated cucumber plants assessed as inhibition of fungal growth at 6.25 mg/ml measured 3 days post compound treatment.
In a further test the test system is Blumeria graminis. Put plainly: Fungicidal activity against Blumeria graminis grown on compound pre-treated wheat seedlings assessed as inhibition of fungal growth at 6.25 mg/ml measured 7 days post fungal inoculation.
Test [1] deals with Pseudoperonospora cubensis. The test is described as follows: Fungicidal activity against Pseudoperonospora cubensis grown on compound pre-treated cucumber leaves assessed as inhibition of fungal growth at 6.25 mg/ml measured 5 days post compound treatment.
The next test relates to Botrytis cinerea. The test is described as follows: Fungicidal activity against Botryotinia fuckeliana assessed as inhibition of mycelial growth at 25 mg/ml measured after 48 hr.
A further test deals with Phytophthora infestans. The test is described as follows: Fungicidal activity against Phytophthora infestans assessed as inhibition of mycelial growth at 25 mg/ml measured after 48 hr.
The subject of a further test is Pyricularia oryzae. Put plainly: Fungicidal activity against Magnaporthe oryzae assessed as inhibition of mycelial growth at 25 mg/ml measured after 48 hr.

For the compound `CO/N=C(/C(=O)OC)c1ccccc1CO/N=C(\C)C1=Cc2ccc(F)cc2C1`, the inhibition in the test on Colletotrichum lagenaria was 40%; with Blumeria graminis, 85%; in test [1], 85%; in the test on Botrytis cinerea, 50%; in the test on Phytophthora infestans, 100%; in the test on Pyricularia oryzae it was 100%.

As for `CO/N=C(/C(=O)OC)c1ccccc1CO/N=C(\C)C1=Cc2c(Cl)cccc2C1`, the inhibition with Colletotrichum lagenaria is 100%; in the test with Blumeria graminis, 100%; in test [1], 90%; in the test with Botrytis cinerea, 100%; with Phytophthora infestans, 100%; in the test on Pyricularia oryzae, 100%.

For the compound `CO/N=C(/C(=O)OC)c1ccccc1CO/N=C(\C)C1=Cc2cc(Cl)ccc2C1`, the inhibition came to 90% in the test with Colletotrichum lagenaria; 95% in the test on Blumeria graminis; 95% in test [1]; 80% in the test on Botrytis cinerea; 100% with Phytophthora infestans; 100% in the test on Pyricularia oryzae.

Take `CNC(=O)/C(=N/OC)c1ccccc1CO/N=C(\C)C1=Cc2cc(F)ccc2C1`: the inhibition in the test on Colletotrichum lagenaria was 30%; in the test with Blumeria graminis it was 100%; in test [1], 30%; with Botrytis cinerea, 80%; in the test with Phytophthora infestans, 80%; in the test with Pyricularia oryzae, 100%.

For the compound `CNC(=O)/C(=N/OC)c1ccccc1CO/N=C(\C)C1=Cc2ccccc2C1`, the inhibition was 95% with Colletotrichum lagenaria; 100% in the test with Blumeria graminis; 95% in test [1]; 100% in the test on Botrytis cinerea; 100% with Phytophthora infestans; 100% in the test on Pyricularia oryzae.

For the compound `CO/C=C(/C(=O)OC)c1ccccc1CO/N=C(\C)C1=Cc2c(Cl)cccc2C1`, the inhibition with Colletotrichum lagenaria worked out at 30%; in the test on Blumeria graminis it was 85%; in test [1], 0%; in the test on Botrytis cinerea, 80%; in the test with Phytophthora infestans, 100%; in the test on Pyricularia oryzae, 100%.

In the case of `CNC(=O)/C(=N/OC)c1ccccc1CO/N=C(\C)C1=Cc2ccc(F)cc2C1`, the inhibition with Colletotrichum lagenaria was 100%; in the test on Blumeria graminis, 100%; in test [1], 100%; with Botrytis cinerea it was 80%; with Phytophthora infestans, 100%; in the test on Pyricularia oryzae it was 100%.

Regarding `CO/C=C(/C(=O)OC)c1ccccc1CO/N=C(\C)C1=Cc2cc(Cl)ccc2C1`, the inhibition in the test with Colletotrichum lagenaria is 30%; with Blumeria graminis it was 100%; in test [1], 30%; with Botrytis cinerea, 80%; in the test on Phytophthora infestans, 100%; with Pyricularia oryzae, 100%.

With `CO/C=C(/C(=O)OC)c1ccccc1CO/N=C(\C)C1=Cc2ccc(F)cc2C1`, the inhibition in the test with Colletotrichum lagenaria was 60%; in the test on Blumeria graminis it was 100%; in the test on Botrytis cinerea, 50%; in the test on Phytophthora infestans, 100%; in the test on Pyricularia oryzae it was 100%.

`CO/N=C(/C(=O)OC)c1ccccc1CO/N=C(\C)C1=Cc2ccccc2C1`: the inhibition in the test with Colletotrichum lagenaria was 30%; in the test with Blumeria graminis it was 10%; in test [1], 30%; in the test on Botrytis cinerea, 80%; in the test on Phytophthora infestans, 100%; in the test on Pyricularia oryzae, 100%.

Turning to `CO/N=C(\C(=O)OC)c1ccccc1CO/N=C(\C)c1cccc(C(F)(F)F)c1`, the inhibition in the test with Colletotrichum lagenaria was determined as 60%; with Blumeria graminis it was 100%; in test [1] it was 50%; in the test with Botrytis cinerea it was 100%; with Pyricularia oryzae, 100%.

For `CNC(=O)/C(=N/OC)c1ccccc1CO/N=C(\C)C1=Cc2cc(Cl)ccc2C1`, the inhibition in the test on Colletotrichum lagenaria was 98%; in the test with Blumeria graminis, 100%; in test [1], 90%; in the test on Botrytis cinerea it was 100%; in the test on Phytophthora infestans it was 80%; with Pyricularia oryzae it was 80%.

Take `CO/N=C(/C(=O)OC)c1ccccc1CO/N=C(\C)C1=Cc2ccc(C)cc2C1`: the inhibition in the test on Colletotrichum lagenaria was 90%; in the test on Blumeria graminis, 100%; in test [1], 100%; in the test on Botrytis cinerea, 80%; with Phytophthora infestans, 100%; with Pyricularia oryzae, 100%.

For the compound `CNC(=O)/C(=N/OC)c1ccccc1CO/N=C(\C)C1=Cc2ccc(C)cc2C1`, the inhibition (with Colletotrichum lagenaria; with Blumeria graminis; in test [1]; with Botrytis cinerea; with Phytophthora infestans; in the test with Pyricularia oryzae) was 100% in each case.

For the compound `CNC(=O)/C(=N/OC)c1ccccc1CO/N=C(\C)C1=Cc2ccc(Cl)cc2C1`, the inhibition came to 100% in the test on Colletotrichum lagenaria; 100% in the test with Blumeria graminis; 85% in test [1]; 100% in the test with Botrytis cinerea; 100% with Phytophthora infestans; 100% in the test on Pyricularia oryzae.

Take `CO/N=C(/C(=O)OC)c1ccccc1COc1ccccc1C` [KRESOXIM-METHYL]: the inhibition in the test on Colletotrichum lagenaria was determined as 30%; in the test with Blumeria graminis, 100%; in test [1] it was 0%; in the test on Botrytis cinerea, 100%; with Pyricularia oryzae, 100%.

As to `CNC(=O)/C(=N/OC)c1ccccc1CO/N=C(\C)C1=Cc2c(Cl)cccc2C1`, the inhibition with Colletotrichum lagenaria stood at 80%; in the test on Blumeria graminis, 100%; in test [1] it was 100%; in the test with Botrytis cinerea it was 80%; in the test with Phytophthora infestans it was 100%; in the test with Pyricularia oryzae, 100%.

`CO/N=C(/C(=O)OC)c1ccccc1CO/N=C(\C)C1=Cc2cc(F)ccc2C1`: the inhibition in the test on Colletotrichum lagenaria stood at 40%; in the test on Blumeria graminis, 100%; in test [1], 70%; in the test on Botrytis cinerea, 80%; in the test on Phytophthora infestans, 100%; in the test with Pyricularia oryzae, 50%.

Regarding `CO/C=C(/C(=O)OC)c1ccccc1CO/N=C(C)/C=C/c1ccc(Cl)cc1`, the inhibition worked out at 50% with Colletotrichum lagenaria; 62.5% in the test on Blumeria graminis; 100% in test [1]; 80% in the test on Botrytis cinerea; 100% with Pyricularia oryzae.

For the compound `CO/N=C(/C(=O)OC)c1ccccc1CO/N=C(\C)C1=Cc2ccc(Cl)cc2C1`, the inhibition amounted to 65% in the test with Colletotrichum lagenaria; 90% with Blumeria graminis; 50% in test [1]; 80% with Botrytis cinerea; 100% in the test on Phytophthora infestans; 100% in the test with Pyricularia oryzae.

On to `CO/C=C(/C(=O)OC)c1ccccc1CO/N=C(\C)C1=Cc2ccc(Cl)cc2C1`, for which the inhibition is 60% with Colletotrichum lagenaria; 100% in the test with Blumeria graminis; 40% in test [1]; 80% in the test on Botrytis cinerea; 100% in the test on Phytophthora infestans; 50% with Pyricularia oryzae.

In the case of `CO/C=C(/C(=O)OC)c1ccccc1CO/N=C(\C)C1=Cc2ccc(C)cc2C1`, the inhibition in the test on Colletotrichum lagenaria is 70%; with Blumeria graminis it was 100%; in test [1] it was 80%; in the test on Botrytis cinerea, 80%; in the test with Phytophthora infestans, 100%; in the test with Pyricularia oryzae, 100%.
